Data: patent US8735398B2 (Bristol-Myers Squibb Company, priority 2009, dated 2014)

The compounds below were run on HCV 1b genotype (assay: HCV replicon assay (HCV-neo replicon cells, wild-type)). Details: HCV 1b genotype replicon; class symbol; read-out: EC50 Range against HCV 1b.
Format: cell-based, Hepatitis C virus
Outline: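 Inhibition was tested in replicon-bearing cells, both wild-type HCV-neo and lines with NS5A resistance substitutions, using the O'Boyle et al. 2005 replicon method or luciferase-reporter formats.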

Row | Structure (SMILES) | EC50 [µM]
1 | CN(C)C(C(=O)N1CCC[C@H]1C(=O)Nc1ccc(-c2cnc(-c3ccc(NC(=O)[C@@H]4CCCN4C(=O)C(c4ccc(F)cc4F)N(C)C)cc3)o2)cc1)c1ccc(F)cc1F (single isomer, unassigned) [Example D-6] | < 0.00457
2 | O=C(Nc1ccc(-c2ccc(-c3ccc(NC(=O)[C@@H]4CCCN4C(=O)[C@H](O)c4ccccc4)cc3)o2)cc1)[C@@H]1CCCN1C(=O)[C@H](O)c1ccccc1 [JG-56, (2S,2′S)-N,N′-(2,5-furandiyldi-4,1-phenylene)bis(1-((2R)-2-hydroxy-2-phenylacetyl)-2-pyrrolidinecarboxamide)] | < 0.00457

Same assay, conditions: HCV 1b genotype replicon; class symbols; read-out: EC50 Range against HCV 1b

Row | Structure (SMILES) | EC50 [µM]
3 | O=C(Nc1ccc(-c2cnc(-c3ccc(NC(=O)[C@@H]4C[C@@H](O)CN4C(=O)Cc4ccccn4)cc3)o2)cc1)[C@@H]1C[C@@H](O)CN1C(=O)Cc1ccccn1 [XY-58, (2S,4R,2′S,4′R)-N,N′-(1,3-oxazole-2,5-diyldi-4,1-phenylene)bis(4-hydroxy-1-(2-pyridinylacetyl)-2-pyrrolidinecarboxamide)] | 0.1 to 0.999

Same assay, conditions: Hepatitis C virus, HCV 1b genotype replicon; class symbol; read-out: EC50 Range against HCV 1b

Row | Structure (SMILES) | EC50 [µM]
4 | C[C@@](O)(C(=O)N1CC[C@@H](NC(=O)Nc2ccc(-c3cnc(-c4ccc(NC(=O)N[C@@H]5CCN(C(=O)[C@@](C)(O)c6ccccc6)C5)cc4)o3)cc2)C1)c1ccccc1 [FY-7, N′,N′″-(1,3-oxazole-2,5-diyldi-4,1-phenylene)bis(1-((3R)-1-(2-hydroxy-2-phenylpropanoyl)-3-pyrrolidinyl)urea)] | 0.1 to 0.999
5 | COc1cccc2c(C(=O)N3CCC[C@H]3C(=O)Nc3ccc(-c4cnc(-c5ccc(NC(=O)[C@@H]6CCCN6C(=O)[C@@H](c6ccccc6)N(C)C)cc5)o4)cc3)nc(Cl)cc12 [OL-61, (2S)-1-((3-chloro-5-methoxy-1-isoquinolinyl)carbonyl)-N-(4-(2-(4-((((2S)-1-((2R)-2-(dimethylamino)-2-phenylacetyl)-2-pyrrolidinyl)carbonyl)amino)phenyl)-1,3-oxazol-5-yl)phenyl)-2-pyrrolidinecarboxamide] | 0.00457 to 0.099
6 | O=C(Nc1ccc(-c2cc(-c3ccc(NC(=O)[C@@H]4CCCN4C(=O)c4nc(Cl)cc5ccccc45)cc3)[nH]n2)cc1)[C@@H]1CCCN1C(=O)c1nc(Cl)cc2ccccc12 [OL-40, (2S,2′S)-N,N′-(1H-pyrazole-3,5-diyldi-4,1-phenylene)bis(1-((3-chloro-1-isoquinolinyl)carbonyl)-2-pyrrolidinecarboxamide)] | 0.00457 to 0.099
7 | O=C(Nc1ccc(-c2nnc(-c3ccc(NC(=O)[C@@H]4CCCN4C(=O)Cc4ccccc4)cc3)o2)cc1)[C@@H]1CCCN1C(=O)Cc1ccccc1 [MS-9, (2S,2′S)-N,N′-(4,4′-(1,3,4-oxadiazole-2,5-diyl)bis(4,1-phenylene))bis(1-(2-phenylacetyl)pyrrolidine-2-carboxamide)] | 0.1 to 0.999
8 | O=C(Nc1ccc(-c2cnc(-c3ccc(NC(=O)[C@@H]4CCCN4C(=O)CC4CC4)cc3)o2)cc1)C1CCCN1C(=O)CC1CC1 (stereo partly drawn) [Example D-20, (2′S)-N,N′-(1,3-oxazole-2,5-diyldi-4,1-phenylene)bis(1-(cyclopropylacetyl)-2-pyrrolidinecarboxamide)] | 0.1 to 0.999
9 | O=C(Nc1ccc(-c2nnc(-c3ccc(NC(=O)[C@@H]4CCCN4C(=O)c4cc(Cl)ccn4)cc3)o2)cc1)[C@@H]1CCCN1C(=O)c1cc(Cl)ccn1 [RK-27, (2S,2′S)-N,N′-(1,3,4-oxadiazole-2,5-diyldi-4,1-phenylene)bis(1-((4-chloro-2-pyridinyl)carbonyl)-2-pyrrolidinecarboxamide)] | 0.1 to 0.999
10 | CC(=O)N1CCC[C@H]1C(=O)Nc1ccc(-c2nc(-c3ccc(NC(=O)C4CC(=O)N(CCc5cccs5)C4)cc3)cs2)cc1 (stereo partly drawn) [Example D-46, (2S)-1-acetyl-N-[4-[4-[4-[[[5-oxo-1-[2-(2-thienyl)ethyl]-3-pyrrolidinyl]carbonyl]amino]phenyl]-2-thiazolyl]phenyl]-2-pyrrolidinecarboxamide] | 1 to 10
11 | O=C(Nc1ccc(-c2cnc(-c3ccc(NC(=O)[C@@H]4CCCN4C(=O)[C@H](O)c4ccccc4Cl)cc3)o2)cc1)[C@@H]1CCCN1C(=O)[C@H](O)c1ccccc1Cl [JG-26, (2S,2′S)-N,N′-(1,3-oxazole-2,5-diyldi-4,1-phenylene)bis(1-((2R)-2-(2-chlorophenyl)-2-hydroxyacetyl)-2-pyrrolidinecarboxamide)] | < 0.00457
12 | CC(=O)O[C@H](C(=O)N1CCC[C@H]1C(=O)Nc1ccc(-c2ccc(-c3ccc(NC(=O)[C@@H]4CCCN4C(=O)[C@@H](OC(C)=O)c4ccccc4)cc3)o2)cc1)c1ccccc1 | 0.1 to 0.999
13 | COc1cccc2c(C(=O)N3CCC[C@H]3C(=O)Nc3ccc(-c4ccc(-c5ccc(NC(=O)[C@@H]6CCCN6C(=O)c6nc(Cl)cc7c(OC)cccc67)cc5)o4)cc3)nc(Cl)cc12 [JG-60, (2S,2′S)-N,N′-(2,5-furandiyldi-4,1-phenylene)bis(1-((3-chloro-5-methoxy-1-isoquinolinyl)carbonyl)-2-pyrrolidinecarboxamide)] | 1 to 10
14 | O=C(Nc1ccc(-c2cnc(-c3ccc(NC(=O)[C@@H]4C[C@@H](O)CN4C(=O)Cc4ccccc4)cc3)o2)cc1)[C@@H]1C[C@@H](O)CN1C(=O)Cc1ccccc1 [JG-2, (2S,4R,2′S,4′R)-N,N′-(1,3-oxazole-2,5-diyldi-4,1-phenylene)bis(4-hydroxy-1-(phenylacetyl)-2-pyrrolidinecarboxamide)] | < 0.00457
15 | COc1cccc(C(=O)N2CCC[C@H]2C(=O)Nc2ccc(-c3nnc(-c4ccc(NC(=O)[C@@H]5CCCN5C(=O)c5cccc(OC)c5)cc4)o3)cc2)c1 [RK-7, (2S,2′S)-N,N′-(1,3,4-oxadiazole-2,5-diyldi-4,1-phenylene)bis(1-(3-methoxybenzoyl)-2-pyrrolidinecarboxamide)] | 0.1 to 0.999
16 | O=C(Nc1ccc(-c2nnc(-c3ccc(NC(=O)[C@@H]4CCCN4C(=O)OCc4ccccc4)cc3)o2)cc1)[C@@H]1CCCN1C(=O)OCc1ccccc1 [MS-8, (2S,2′S)-2,2′-[1,3,4-oxadiazole-2,5-diylbis(4,1-phenyleneiminocarbonyl)]bis-1-pyrrolidinecarboxylic acid, bis(phenylmethyl) ester] | 0.00457 to 0.099
17 | O=C(Nc1ccc(-c2n[nH]nc2-c2ccc(NC(=O)[C@@H]3C[C@@H](O)CN3C(=O)Cc3ccccc3)cc2)cc1)[C@@H]1C[C@@H](O)CN1C(=O)Cc1ccccc1 [OL-21, (2S,4R,2′S,4′R)-N,N′-(1H-1,2,3-triazole-4,5-diyldi-4,1-phenylene)bis(4-hydroxy-1-(phenylacetyl)-2-pyrrolidinecarboxamide)] | 0.1 to 0.999
18 | Cn1nc(-c2ccc(NC(=O)[C@@H]3CCCN3C(=O)C3CC3)cc2)cc1-c1ccc(NC(=O)[C@@H]2CCCN2C(=O)C2CC2)cc1 [FY-4, (2S,2′S)-N,N′-((1-methyl-1H-pyrazole-3,5-diyl)di-4,1-phenylene)bis(1-(cyclopropylcarbonyl)-2-pyrrolidinecarboxamide)] | 1 to 10
19 | CC(=O)N1CCC[C@H]1C(=O)Nc1ccc(-c2nc(-c3ccc(NC(=O)[C@@H]4C=CCN4C(=O)c4ccno4)cc3)cs2)cc1 [Example D-50, (2S)-N-[4-[2-[4-[[[(2S)-1-acetyl-2-pyrrolidinyl]carbonyl]amino]phenyl]-4-thiazolyl]phenyl]-2,5-dihydro-1-(5-isoxazolylcarbonyl)-1H-pyrrole-2-carboxamide] | 0.1 to 0.999

Same assay, conditions: Hepatitis C virus, HCV 1b genotype replicon; class symbols; read-out: EC50 Range against HCV 1b

Row | Structure (SMILES) | EC50 [µM]
20 | O=C(Nc1ccc(-c2cnc(-c3ccc(NC(=O)[C@@H]4CCCN4C(=O)c4ccccc4F)cc3)o2)cc1)[C@@H]1CCCN1C(=O)c1ccccc1F [XY-10, (2S,2′S)-N,N′-(1,3-oxazole-2,5-diyldi-4,1-phenylene)bis(1-(2-fluorobenzoyl)-2-pyrrolidinecarboxamide)] | 0.1 to 0.999
21 | CCn1c(=O)n(C(C)C(=O)N2CCC[C@H]2C(=O)Nc2ccc(-c3cnc(-c4ccc(NC(=O)[C@@H]5CCCN5C(=O)C(C)n5c(=O)n(CC)c6ccccc65)cc4)o3)cc2)c2ccccc21 (stereo partly drawn) [JR-10, (2S,2′S)-N,N′-(2,5-oxazolediyldi-4,1-phenylene)bis[1-[2-(3-ethyl-2,3-dihydro-2-oxo-1H-benzimidazol-1-yl)-1-oxopropyl]-2-pyrrolidinecarboxamide]] | 1 to 10
22 | O=C(Nc1ccc(-c2cnc(-c3ccc(NC(=O)[C@@H]4CCCN4C(=O)c4sccc4Cl)cc3)o2)cc1)[C@@H]1CCCN1C(=O)c1sccc1Cl [XY-25, (2S,2′S)-N,N′-(1,3-oxazole-2,5-diyldi-4,1-phenylene)bis(1-((3-chloro-2-thienyl)carbonyl)-2-pyrrolidinecarboxamide)] | 1 to 10
23 | O=C(Nc1ccc(-c2cnc(-c3ccc(NC(=O)[C@@H]4C[C@@H](O)CN4C(=O)Cc4cccnc4)cc3)o2)cc1)[C@@H]1C[C@@H](O)CN1C(=O)Cc1cccnc1 [XY-45, (2S,4R,2′S,4′R)-N,N′-(1,3-oxazole-2,5-diyldi-4,1-phenylene)bis(4-hydroxy-1-(3-pyridinylacetyl)-2-pyrrolidinecarboxamide)] | 1 to 10
24 | Cc1ccc(C)c(C(=O)N2CCC[C@H]2C(=O)Nc2ccc(-c3cnc(-c4ccc(NC(=O)[C@@H]5CCCN5C(=O)c5cc(C)ccc5C)cc4)o3)cc2)c1 [XY-43, (2S,2′S)-N,N′-(1,3-oxazole-2,5-diyldi-4,1-phenylene)bis(1-(2,5-dimethylbenzoyl)-2-pyrrolidinecarboxamide)] | 1 to 10
25 | O=C(Nc1ccc(-c2cnc(-c3ccc(NC(=O)[C@@H]4CCCN4C(=O)C4CCOC4)cc3)o2)cc1)[C@@H]1CCCN1C(=O)C1CCOC1 (stereo partly drawn) [XY-18, (2S,2′S)-N,N′-(1,3-oxazole-2,5-diyldi-4,1-phenylene)bis(1-(tetrahydro-3-furanylcarbonyl)-2-pyrrolidinecarboxamide)] | 0.00457 to 0.099
26 | O=C(Nc1ccc(-c2cnc(-c3ccc(NC(=O)[C@@H]4C[C@@H](O)CN4C(=O)C4CCCCC4)cc3)o2)cc1)[C@@H]1C[C@@H](O)CN1C(=O)C1CCCCC1 [XY-48, (2S,4R,2′S,4′R)-N,N′-(1,3-oxazole-2,5-diyldi-4,1-phenylene)bis(1-(cyclohexylcarbonyl)-4-hydroxy-2-pyrrolidinecarboxamide)] | 1 to 10

Same assay, conditions: Hepatitis C virus, HCV 1b genotype replicon; read-out: EC50 1b

Row | Structure (SMILES) | EC50 [µM]
27 | O=C(Nc1ccc(-c2nnc(-c3ccc(NC(=O)[C@@H]4CCCN4C(=O)Cc4ccccc4)cc3)o2)cc1)[C@@H]1CCCN1C(=O)Cc1ccccc1 [MS-9, (2S,2′S)-N,N′-(4,4′-(1,3,4-oxadiazole-2,5-diyl)bis(4,1-phenylene))bis(1-(2-phenylacetyl)pyrrolidine-2-carboxamide)] | 0.15
28 | O=C(Nc1ccc(-c2ccc(-c3ccc(NC(=O)[C@@H]4CCCN4C(=O)[C@H](O)c4ccccc4)cc3)o2)cc1)[C@@H]1CCCN1C(=O)[C@H](O)c1ccccc1 [JG-56, (2S,2′S)-N,N′-(2,5-furandiyldi-4,1-phenylene)bis(1-((2R)-2-hydroxy-2-phenylacetyl)-2-pyrrolidinecarboxamide)] | < 0.005
29 | O=C(Nc1ccc(-c2cnc(-c3ccc(NC(=O)[C@@H]4C[C@@H](O)CN4C(=O)Cc4ccccc4)cc3)o2)cc1)[C@@H]1C[C@@H](O)CN1C(=O)Cc1ccccc1 [JG-2, (2S,4R,2′S,4′R)-N,N′-(1,3-oxazole-2,5-diyldi-4,1-phenylene)bis(4-hydroxy-1-(phenylacetyl)-2-pyrrolidinecarboxamide)] | 0.002
30 | O=C(Nc1ccc(-c2nnc(-c3ccc(NC(=O)[C@@H]4CCCN4C(=O)OCc4ccccc4)cc3)o2)cc1)[C@@H]1CCCN1C(=O)OCc1ccccc1 [MS-8, (2S,2′S)-2,2′-[1,3,4-oxadiazole-2,5-diylbis(4,1-phenyleneiminocarbonyl)]bis-1-pyrrolidinecarboxylic acid, bis(phenylmethyl) ester] | 0.09
